In one data set the test system is vaccinia virus (VV). Conditions: in vitro, read-out: 50% effective concentration [EC50], inhibition of virus replication; cited from earlier work.
A further data set deals with cowpox virus (CV). Conditions: in vitro, read-out: 50% effective concentration [EC50], inhibition of virus replication; cited from earlier work.
For another data set, the system named is ectromelia virus (ECTV). Conditions: read-out: 50% effective concentration [EC50], inhibition of virus replication; cited from earlier work.
For a further data set, the system named is monkeypox. Conditions: in vitro, read-out: 50% effective concentration [EC50], inhibition of virus replication; cited from earlier work.
The next data set concerns camelpox. Conditions: read-out: 50% effective concentration [EC50], inhibition of virus replication; cited from earlier work.
The subject of a further data set is variola viruses. Conditions: in vitro, read-out: 50% effective concentration [EC50], inhibition of virus replication; cited from earlier work.
In data set [1] the test system is VV. Conditions: lethal infection with VV; treatments delayed up to 72 h post-viral inoculation; cited from earlier work.
The next data set deals with CV. Conditions: lethal infection with CV; treatments delayed up to 72 h post-viral inoculation; cited from earlier work.
The test system of data set [2] is VV. Conditions: orally twice a day at 15 or 50 mg/kg of body weight for 5 days; cited from earlier work.
A further data set can be described thus: physchem. Conditions: aqueous buffer.
A further data set concerns ECTV. Conditions: mouse, in vivo; cited from earlier work.

As usually defined, the solubility is the dissolved amount per volume that the medium holds.

Structures are written as SMILES. Converted amounts (≈) assume the structure as drawn.

Regarding `O=C(NN1C(=O)[C@@H]2[C@@H]3C=C[C@@H]([C@H]4C[C@@H]34)[C@@H]2C1=O)c1ccc(C(F)(F)F)cc1` [ST-246, 4-trifluoromethyl-N-(3,3a,4,4a,5,5a,6,6a-octahydro-1,3-dioxo-4,6-ethenocycloprop[f]isoindol-2-(1H)-yl)-benzamide], the EC50 with vaccinia virus (VV), in the data set on cowpox virus (CV), in the data set with ectromelia virus (ECTV), in the data set on monkeypox, in the data set on camelpox and with variola viruses was at most 70 nM in each case. Besides, the “preventing or reducing mortality” value in the data set with VV [1], in the data set with CV and in the data set with ECTV was “highly effective in preventing or reducing mortality” each time. The tail lesions result in the data set on VV [2] was “significantly reduced”. Further, the solubility in “physchem” is about 2 µg/mL (≈ 5.31 µM). The “toxicity in animal models” value in the data set on ECTV is reported as “nontoxic”.

The record behind these values is patent publication US11779566B2 (priority 2016, dated 2023).
